This is an account of results in US12679839B2, “Cyclin-dependent kinase 7 (CDK7) non-covalent inhibitors” (JANSSEN PHARMACEUTICA NV, priority 2020, dated 2026).

For series [1], the system named is RNA polymerase II Serine 5 phosphorylation (Rpb1 CTD), downstream substrate of CDK7. Put plainly: Imaging-based cellular RNA PolII Ser5 phosphorylation assay in A549 cells. The format is cell-based, human. The note with it: challenged with compound for 3 hours; for IC50: Homo sapiens, A549, 3 h, read-out: pRNA polII Ser5 (A549) pIC50 (converted). In outline: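 A549 cells seeded 20 h in DMEM with 1% FBS, then exposed to compound for 3 h at 37 °C; fixed, methanol-permeabilized and immunostained for phospho-Rpb1 CTD Ser5, read by automated imaging. Signal normalized to DMSO (high) and 10 μM LDC4297 (low) controls; IC50 from four-parameter fit of % control vs concentration.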

Series [2] deals with T1, CDK7/Cyclin H/MAT-1 complex (Homo sapiens, UniProt P50613).
T1 construct: Human CDK7 (amino acids 1-346); His6 (N); TEV protease cleavage site (N); made in house; host or cells: baculovirus-SF9 insect cells
Put plainly: Flint assay, end-point fluorescence (5 nM CDK7/Cyclin H/MAT-1 complex). The format is biochemical. The note with it: for IC50: read-out: CDK7 (5 nM) pIC50 (converted). In outline:
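Trimeric complex of His6-TEV-tagged human CDK7 (1-346), MAT1 (1-309) and cyclin H (1-323), co-expressed in Sf9 cells, at 5 nM final, with substrates and coupling reagents as in the absorbance assay; 24 h reaction. End-point NADH fluorescence decrease (ex 340/em 440 nm); % inhibition versus no-inhibitor and full-inhibition controls, IC50 from four-parameter Hill fit.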

T1 sequence (P50613 whole entry, the tested form may be a part): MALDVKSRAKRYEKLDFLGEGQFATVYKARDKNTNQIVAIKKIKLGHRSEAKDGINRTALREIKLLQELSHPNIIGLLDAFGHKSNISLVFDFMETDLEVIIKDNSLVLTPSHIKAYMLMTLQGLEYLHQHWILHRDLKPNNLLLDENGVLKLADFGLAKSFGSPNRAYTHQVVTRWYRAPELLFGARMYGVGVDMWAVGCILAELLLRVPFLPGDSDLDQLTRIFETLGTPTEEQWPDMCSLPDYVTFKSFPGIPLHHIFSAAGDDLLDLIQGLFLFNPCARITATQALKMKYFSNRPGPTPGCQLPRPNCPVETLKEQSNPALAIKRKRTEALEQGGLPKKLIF
T1 sequence (P51946 whole entry partner, the tested form may be a part): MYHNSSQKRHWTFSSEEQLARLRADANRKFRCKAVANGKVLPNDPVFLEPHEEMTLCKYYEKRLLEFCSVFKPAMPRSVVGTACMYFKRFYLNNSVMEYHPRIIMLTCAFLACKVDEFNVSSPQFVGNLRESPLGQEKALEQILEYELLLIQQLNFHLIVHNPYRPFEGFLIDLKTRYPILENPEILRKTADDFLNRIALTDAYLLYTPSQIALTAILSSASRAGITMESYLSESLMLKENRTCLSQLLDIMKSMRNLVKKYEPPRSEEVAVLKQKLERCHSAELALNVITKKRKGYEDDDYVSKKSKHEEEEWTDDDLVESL
T1 sequence (P51948 whole entry partner, the tested form may be a part): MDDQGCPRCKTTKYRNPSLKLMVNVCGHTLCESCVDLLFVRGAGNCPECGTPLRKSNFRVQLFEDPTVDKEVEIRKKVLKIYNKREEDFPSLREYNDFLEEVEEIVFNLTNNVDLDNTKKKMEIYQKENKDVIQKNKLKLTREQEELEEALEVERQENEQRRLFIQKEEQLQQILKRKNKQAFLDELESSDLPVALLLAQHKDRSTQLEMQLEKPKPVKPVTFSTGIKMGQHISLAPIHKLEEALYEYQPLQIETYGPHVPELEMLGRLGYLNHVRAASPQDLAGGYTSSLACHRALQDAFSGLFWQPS

For `C[C@@H]1Cc2cnc(NC3CCOCC3)nc2CN1C(=O)[C@H]1CCN(C)C[C@@H]1c1ccccc1` [Compound 47], the melting point was 162.7 °C. Also, the IC50 in series [1] is around 70.8 nM. For the same molecule, the “CDK7 (5 nM) pIC50” value in series [2] came out at 8.3.

As to `C[C@@H]1Cc2cnc(N[C@@H](CO)c3ccccc3)nc2CN1C(=O)[C@H]1CCN(C)C[C@@H]1c1ccccc1` [Compound 71], in series [1], the IC50 is 120 nM. The “CDK7 (5 nM) pIC50” value in series [2] is 8.54.

Regarding `C[C@@H]1Cc2cnc(N[C@H](CO)c3ccccc3)nc2CN1C(=O)[C@H]1CCN(C)C[C@@H]1c1ccccc1` [Compound 72], the IC50 in series [1] was 200 nM. The “CDK7 (5 nM) pIC50” value in series [2] is given as 8.22.

For `C[C@@H]1Cc2cnc(Nc3cnn(CC(C)(C)O)c3)nc2CN1C(=O)[C@H]1CCN(C)C[C@@H]1c1ccccc1` [Compound 74], in series [1], the IC50 was 178 nM. Besides, in series [2], the “CDK7 (5 nM) pIC50” value is 8.0.

Regarding `C[C@@H]1Cc2cnc(Nc3ccnc(C(F)F)c3)nc2CN1C(=O)[C@H]1CCN(C)C[C@@H]1c1ccccc1` [Compound 75], in series [1], the IC50 was 57.5 nM. Besides, in series [2], the “CDK7 (5 nM) pIC50” value is recorded as 8.04.

With `C[C@@H]1Cc2cnc(Nc3cnn4c3CCCC4)nc2CN1C(=O)[C@H]1CCN(C)C[C@@H]1c1ccccc1` [Compound 77], in series [1], the IC50 is 316 nM. Further, the “CDK7 (5 nM) pIC50” value in series [2] is reported as 7.88.

In the case of `Cc1cc(Nc2ncc3c(n2)CN(C(=O)[C@H]2CCN(C)C[C@@H]2c2ccccc2)[C@H](C)C3)ccn1` [Compound 78], the IC50 in series [1] was around 57.5 nM. Moreover, the “CDK7 (5 nM) pIC50” value in series [2] is 8.37.

Consider `C[C@@H]1Cc2cnc(Nc3ccnn3C)nc2CN1C(=O)[C@H]1CCN(C)C[C@@H]1c1ccccc1` [Compound 79], for which the IC50 in series [1] is 2290 nM. Also, in series [2], the “CDK7 (5 nM) pIC50” value came out at 7.78.

As to `C[C@@H]1Cc2cnc(Nc3cnn(C)c3)nc2CN1C(=O)[C@H]1CCN(C)C[C@@H]1c1ccccc1` [Compound 82], the IC50 in series [1] is around 46.8 nM. Further, in series [2], the “CDK7 (5 nM) pIC50” value is recorded as 8.67.

As to `CC(C)n1cc(Nc2ncc3c(n2)CN(C(=O)[C@H]2CCN(C)C[C@@H]2c2ccccc2)[C@H](C)C3)cn1` [Compound 89], the IC50 in series [1] was 70.8 nM. The “CDK7 (5 nM) pIC50” value in series [2] is given as below 6.7.

For `C[C@@H]1Cc2cnc(NC(C)(C)c3cnn(C)c3)nc2CN1C(=O)[C@H]1CCN(C)C[C@@H]1c1ccccc1` [Compound 90], in series [1], the IC50 was 5010 nM. Besides, the “CDK7 (5 nM) pIC50” value in series [2] worked out at 7.57.

Consider `Cc1cccc([C@H]2CN(C)CC[C@@H]2C(=O)N2Cc3nc(NC4CCOCC4)ncc3C[C@H]2C)c1` [Compound 93], for which the IC50 in series [1] is around 67.6 nM. In addition, the “CDK7 (5 nM) pIC50” value in series [2] was found to be 8.52.

`C[C@@H]1Cc2cnc(NC3CCOCC3)nc2CN1C(=O)[C@H]1CCN(C)C[C@@H]1c1ccc(Cl)c(F)c1` [Compound 122b]: the IC50 in series [1] was around 63.1 nM. Besides, the “CDK7 (5 nM) pIC50” value in series [2] was determined as 8.5.

Turning to `Cc1cccc([C@H]2CN(C(C)C)CC[C@@H]2C(=O)N2Cc3nc(NC4CCOCC4)ncc3C[C@H]2C)c1` [Compound 166], the IC50 in series [1] is around 51.3 nM. Also, in series [2], the “CDK7 (5 nM) pIC50” value turned out to be 7.85.

Take `CO[C@H]1CC[C@H](Nc2cc3c(cn2)C[C@H](C)N(C(=O)[C@@H]2CCN(C)C[C@H]2c2cccc(C)c2)C3)CC1` [Compound 177a]: the “pRNA polII Ser5 (A549) pIC50” value in series [1] is given as 6.98. In addition, the IC50 in series [2] is 12.3 nM.

On to `CO[C@H]1CC[C@H](Nc2cc3c(cn2)C[C@H](C)N(C(=O)[C@H]2CCN(C)C[C@@H]2c2cccc(C)c2)C3)CC1` [Compound 177c], for which the results for the IC50 in series [1] and in series [2] were around 97.7 nM and 22.4 nM, respectively.

Regarding `C[C@@H]1c2nc(NC3CCOCC3)ncc2[C@@H](C)CN1C(=O)[C@H]1CCN(C)C[C@@H]1c1ccccc1` [Compound 180a], in series [1], the IC50 is around 32.4 nM. The “CDK7 (5 nM) pIC50” value in series [2] is given as 8.68.

For `CO[C@H]1CC[C@H](Nc2ncc3c(n2)CN(C(=O)[C@H]2CCN(C)C[C@@H]2c2ccccc2)C2(CC2)C3)CC1` [Compound 192], in series [1], the IC50 was 2880 nM. In addition, the “CDK7 (5 nM) pIC50” value in series [2] was 6.84.

For `CN1CC[C@H](C(=O)N2Cc3nc(NC4CCOCC4)ncc3C(C)(C)C2)[C@@H](c2ccccc2)C1` [Compound 193], the IC50 in series [1] was 3630 nM. Also, the “CDK7 (5 nM) pIC50” value in series [2] was 7.05.

`CN1CC[C@H](C(=O)N2Cc3nc(NC4CCOCC4)ncc3[C@@H]3C[C@@H]32)[C@@H](c2ccccc2)C1` [Compound 199]: in series [1], the IC50 is around 58.9 nM. Further, in series [2], the “CDK7 (5 nM) pIC50” value is listed as 8.27.

With `CN1CC[C@H](C(=O)N2Cc3nc(Nc4cnn(C)c4)ncc3[C@@H]3C[C@@H]32)[C@@H](c2ccccc2)C1` [Compound 200], in series [1], the IC50 is 324 nM. For the same molecule, the “CDK7 (5 nM) pIC50” value in series [2] amounted to 7.77.

With `CO[C@H]1CC[C@H](Nc2ncc3c(n2)CN(C(=O)[C@H]2CCN(C)C[C@@H]2c2ccccc2)[C@H]2C[C@@H]32)CC1` [Compound 201], in series [1], the IC50 was around 19.5 nM. Further, in series [2], the “CDK7 (5 nM) pIC50” value came out at 8.16.

For the molecule `C[C@@H]1Cc2cnc(NC3CCOCC3)nc2CN1C(=O)N1CCN(C)C[C@@H]1c1ccccc1` [Compound 204a], the IC50 in series [1] was 269 nM. Besides, the “CDK7 (5 nM) pIC50” value in series [2] was found to be 8.17.

On to `CC(C)N1CCN(C(=O)N2Cc3nc(NC4CCOCC4)ncc3C[C@H]2C)[C@@H](c2ccccc2)C1` [Compound 206], for which the IC50 in series [1] is 234 nM. Also, in series [2], the “CDK7 (5 nM) pIC50” value is reported as 8.19.

`C[C@@H]1Cc2cnc(NC3CCN(S(C)(=O)=O)CC3)nc2CN1C(=O)N1CCN(C)C[C@@H]1c1ccccc1` [Compound 209]: the IC50 in series [1] is 209 nM. Besides, the “CDK7 (5 nM) pIC50” value in series [2] is 8.48.

In the case of `C[C@@H]1Cc2cnc(NC3CCN(S(=O)(=O)C4CC4)CC3)nc2CN1C(=O)N1CCN(C)C[C@@H]1c1ccccc1` [Compound 210], the IC50 in series [1] is 110 nM. Moreover, the “CDK7 (5 nM) pIC50” value in series [2] is 8.48.

For `C[C@@H]1Cc2cnc(NC3CCN(S(=O)(=O)N(C)C)CC3)nc2CN1C(=O)N1CCN(C)C[C@@H]1c1ccccc1` [Compound 211], the IC50 in series [1] was 724 nM. For the same molecule, the “CDK7 (5 nM) pIC50” value in series [2] is given as 7.88.

Turning to `C[C@@H]1Cc2cnc(NCc3ccn(C)n3)nc2CN1C(=O)N1CCN(C)C[C@@H]1c1ccccc1` [Compound 213], the IC50 in series [1] is 1380 nM. The “CDK7 (5 nM) pIC50” value in series [2] worked out at 6.9.

On to `C[C@@H]1Cc2cnc(NC3CCS(=O)(=O)CC3)nc2CN1C(=O)N1CCN(C)C[C@@H]1c1ccccc1` [Compound 214], for which the IC50 in series [1] is 3550 nM. The “CDK7 (5 nM) pIC50” value in series [2] was found to be 7.8.

The term melting point denotes the temperature of the solid-liquid transition.
